Measurements as given in a melting point compilation (Tetko et al.; mined from patent text by program, amines drawn as free bases though some values may be those of a salt).

First: Cc1sc2c(Br)c3ccccc3c(-c3cc(Br)c(O[C@@H](CCc4ccccc4)C(=O)O)c(Br)c3)c2c1C
Second: Cc1ccc(C)c(OC(=O)c2c3ccccc3nc3ccccc23)c1
The melting point of the first is lower: 176 to 177 °C for the first, 187 to 190 °C for the second.

Compared with `O=Cc1nn(-c2ccc(Cl)cc2)nc1-c1ccccc1`, `O=C1NCCN1CCNc1cc(-c2ccncc2)c(-c2ccccc2)nn1` is higher in melting point: 110 to 111 °C for the first, 206 to 207 °C for the second.

First: COc1ccccc1C1CC=NN1C(=O)c1cccnc1 (centres undefined)
Second: O=C(c1ccc2cnccc2n1)N1CCc2ccccc2C1
The melting point of the first is lower: 93 to 95 °C for the first, 98 to 100 °C for the second.

First: CCOC(=O)N1c2cc(OC)c(OC)cc2C(=O)CC1C (centres undefined)
Second: CCOC(=O)N1N=C(c2ccc(N)cc2)c2cc(Cl)ccc2CC1C (centres undefined)
The melting point of the first is lower: 94 to 95 °C for the first, 95 to 98 °C for the second.

Compared with `COC(=O)[C@H]1CN(c2cc(F)c(N3CCSCC3)c(F)c2)C(=O)O1`, `CCOC(=O)N1CCN(c2c(F)cc([N+](=O)[O-])c(F)c2CO)CC1` is higher in melting point: 99 to 101 °C for the first, 147 to 149 °C for the second.

First: COc1ccccc1-c1cccn2nc(Nc3ccc4c(c3)CCN(CC(=O)N(C)C)CC4)nc12
Second: CC(=O)Nc1nc(N2CCc3ccccc3CC2)c([N+](=O)[O-])c(=O)[nH]1
The melting point of the first is lower: 102 to 105 °C for the first, > 200 °C for the second.

First: CCCCc1c(-c2cc(C)c(OC)c(C)c2)[nH]c2ccccc12
Second: CCc1c(C(=O)c2cc(C)cc(C)c2)n(C/C=C\c2ccccc2)c(=O)[nH]c1=O
The melting point of the first is lower: 76.8 to 77.7 °C for the first, 98 to 99 °C for the second.

First: COc1ccc(CNc2nc(Cl)cc(Cn3c(C(=O)c4cc(C)cc(C#N)c4)c(C(C)C)c(=O)[nH]c3=O)n2)cc1
Second: COc1ccc(COc2c(C)c(C)c3c(c2C)C(c2ccc(C(C)C)cc2)C(C)(C)O3)cc1 (centres undefined)
The melting point of the first is higher: 337 to 338 °C for the first, 95 to 96 °C for the second.

Compared with `Cc1nc(-c2ccc(C(F)(F)F)cc2)sc1C(=O)Nc1cc(Cl)ccc1-c1nnn[nH]1`, `O=C(Nc1ncc(C(F)(F)F)o1)C1c2ccccc2Oc2c(F)cccc21` (racemic) is lower in melting point: 325 to 337 °C for the first, 228 °C for the second.

First: Cc1nccn1-c1ccc(O)cc1
Second: Oc1ccc(-c2cc3ccccc3[nH]2)cc1
The melting point of the first is lower: 205 to 208 °C for the first, 224 to 229 °C for the second.

First: CCCN(CCC)C(N)=O
Second: CCC(=O)c1ccc(SCCCBr)cc1
The melting point of the first is higher: 69 °C for the first, 40 to 41 °C for the second.

First: O=C(OCc1ccc(OCCCc2ccc(Cl)cc2)cc1)c1cccnc1
Second: CCCCc1c(C)c2ccc(OCCCN3CCN(Cc4ccc(Cl)cc4)CC3)cc2[nH]c1=O
The melting point of the first is lower: 67 to 68 °C for the first, 148 to 149 °C for the second.

First: COc1ccc(/C=C/c2ccncc2)cc1O
Second: COc1ccc2c(c1Cl)Sc1ccccc1N2C(C)=O
The melting point of the first is higher: 196 to 199 °C for the first, 136 °C for the second.

First: Cc1c(C)c2c(c(C)c1O)CC(CCO)O2 (racemic)
Second: CCn1nc(C)c2c1NC(=O)CC2C (centres undefined)
The melting point of the first is lower: 123 to 125 °C for the first, 141 to 142 °C for the second.

Compared with `O=C1N(C(c2ccccc2)c2ccccc2)c2cc(F)ccc2C1(O)c1cc2c(cc1O)OCC2` (centres undefined), `Cc1ccccc1C(=NC(=Nc1ccccc1)N1CCC(=O)CC1)Nc1ccc(F)cc1` is higher in melting point: 147 to 149 °C for the first, 234 to 235 °C for the second.

First: CCNC(=O)c1c([Si](C)(C)C)ccc(C=O)c1Cl
Second: CCNC(=O)c1cc2c(nc(C)n2C)c2c1CCC1(Cc3ccccc3C1)N2
The melting point of the first is lower: 140 to 142 °C for the first, 223 to 224 °C for the second.

Going from `NC(=O)Nc1ccc2c(c1)N1CCCN=C1S2` to `CC(C)NC(=O)N1CCc2[nH]cnc2C1c1ccncc1` (centres undefined), the melting point falls from 246 °C to 212 °C.

First: C#CCN(C(CCn1c(=O)[nH]c2ccccc2c1=O)C(=O)O)S(=O)(=O)c1ccc(Oc2ccccc2)cc1 (centres undefined)
Second: O=C1c2ccccc2-c2c1c1ccccc1c(=O)n2CCNS(=O)(=O)c1ccc(Br)cc1
The melting point of the first is lower: 194 to 195 °C for the first, 260 to 263 °C for the second.

First: CC(=O)N[C@@H](CSC(C)=O)C(=O)NCCSC(=O)c1ccccc1
Second: CC(=O)C(=NNc1ccccc1)C(=O)Nc1ccccc1
The melting point of the first is higher: 166 to 168 °C for the first, 96 to 97 °C for the second.

First: C[C@@H]1CN(CC(=O)Nc2nccc3ccccc23)C[C@H](C)N1c1ncnc2sccc12
Second: CCOC(=O)CNc1nccc(-c2ccccn2)n1
The melting point of the first is higher: 206 to 207 °C for the first, 85 °C for the second.

First: CC(C)c1cccc(C(C)C)c1NC(=O)C1c2ccccc2COc2ccc(CO)cc21 (centres undefined)
Second: N#Cc1cnc2cc(Br)ccc2c1Nc1ccc(Cc2ccccc2)cc1
The melting point of the first is lower: 157 to 158 °C for the first, 195 to 197 °C for the second.

First: N#Cc1ccc(N2CCN(Cc3cn4cc(Cl)ccc4n3)CC2)c(F)c1
Second: O=C(Nc1cn2cc(Cl)ccc2n1)c1ccc(C2(C(=O)O)CCCCC2)cc1
The melting point of the first is lower: 132 to 133 °C for the first, 288 °C for the second.

Compared with `CC1(C)Oc2cc(Br)sc2[C@@H](N2CCCCC2=O)[C@@H]1OCc1ccccc1` (relative stereo), `CCOC(=O)C1=C(N)NC2=C(C(=O)CCC2)C1c1ccccc1Br` (centres undefined) is higher in melting point: 146 to 147 °C for the first, 245 °C for the second.

First: c1ccc2c(c1)CC1(C3=NCCN3)CC21 (single isomer, unassigned; (+))
Second: CCOc1ccccc1OC(Cc1ccccc1)C1=NCCN1 (centres undefined)
The melting point of the first is higher: 245 to 247 °C for the first, 95 to 97 °C for the second.

First: CC1(C)CCOCN1C(=O)C(Cl)Cl
Second: CC1CC2C(=CCC3(C)C(C(=O)CCl)=CCC23)C2(C)C=CC(=O)C=C12 (centres undefined)
The melting point of the first is lower: 105 to 106 °C for the first, 164 °C for the second.

Compared with `CCCCCCCCOc1cnc(-c2ccc(C#CCCCC(C)OC(C)=O)cc2)nc1` (centres undefined), `CCCCCS(=O)(=O)NC(=O)CCc1ccc(OCCOC)cc1Oc1ccccc1` is higher in melting point: 58 to 59 °C for the first, 70.4 to 70.5 °C for the second.

First: CC(C)(c1cc(F)ccc1O)c1cc(F)ccc1O
Second: Cc1ccc(CNC(=O)c2ccc(F)cc2OCC(=O)O)cc1[N+](=O)[O-]
The melting point of the first is lower: 155 °C for the first, 159 to 160 °C for the second.

First: CCOc1ccc(C(=O)NC/C=C/c2ccccc2)cc1
Second: CCOC(=O)CNC(=O)c1cn2nc(NCCCN3CCC(OC(c4ccccc4)c4ccccc4)CC3)ccc2n1
The melting point of the first is lower: 132 °C for the first, 172 to 174 °C for the second.

First: O=C1Nc2ccccc2N(C(=O)CN2CCCCC2CN2CCCCC2)c2ccccc21 (centres undefined)
Second: NS(=O)(=O)c1cccc(NC(=O)NC2N=C(c3ccccc3F)c3ccccc3N(CC(=O)N3CC4CCC(CC4)C3)C2=O)c1 (racemic)
The melting point of the first is lower: 220 to 221 °C for the first, 221 to 226 °C for the second.

Compared with `CN(C(=O)OC(C)(C)C)c1cc(Oc2ccc(-n3ccnc3)cc2)ccc1N`, `CC(C)(C)OC(=O)N1CC=C(c2cnc(COc3ccc(S(C)(=O)=O)cc3)cc2Cl)CC1` is higher in melting point: 115 to 116 °C for the first, 148 to 150 °C for the second.

First: C=CCc1c(Cl)cc2c(c1O)CCC2
Second: O=C1CCCc2c1n(CCBr)c1ccc(Cl)cc21
The melting point of the first is lower: 37 to 39 °C for the first, 121 °C for the second.

Compared with `CCS(=O)(=O)N1CCSc2cccc(Cl)c2C1`, `COC1CCN(S(=O)(=O)c2ccc(S(N)(=O)=O)c(Cl)c2)CC1` is higher in melting point: 126 to 128 °C for the first, 165 to 167 °C for the second.

First: O=C(O)[C@@H]1Cc2cc(Cl)cc(Cl)c2S[C@H]1C(F)(F)F (relative stereo)
Second: C[C@H]1[C@@H](O)C(C)(C)C(=O)N1c1ccc(C#N)c(C(F)(F)F)c1
The melting point of the first is higher: 165 to 170 °C for the first, 120 to 121 °C for the second.

First: CC(=O)C1CCC2C3CCC4CC(=O)CCC4(C)C3C(O)CC12C (centres undefined)
Second: COC(=O)C1=C(C)NC(C)=C(C(=O)OCC2COC3(CCCC3)O2)C1c1cccc([N+](=O)[O-])c1 (centres undefined)
The melting point of the first is higher: 227 to 233 °C for the first, 58 to 67 °C for the second.

Compared with `CCCCC(CC(=O)Nc1cc(C(N)=O)ccc1C(C)(C)C)c1cc(Cl)c(OCCCS(=O)(=O)CCC)cc1OC` (centres undefined), `CCOCc1nc2c(N)nc3ccccc3c2n1CC(C)(C)OCCS(C)(=O)=O` is higher in melting point: 144 to 150 °C for the first, 183 to 185 °C for the second.

First: O=C(NCc1cccc(-c2ccc(CS(=O)(=O)Cc3n[nH]c(=O)[nH]3)cc2)c1)c1nc2ccccc2c(=O)[nH]1
Second: COc1cc(-c2nc3ccccc3n2Cc2ccc(Cl)cc2Cl)cc(OC)c1OC
The melting point of the first is higher: 245 to 247 °C for the first, 186 °C for the second.

First: Oc1ccc(-c2nn(C3CCCC3)c3c(C(F)(F)F)cccc23)c(O)c1
Second: NS(=O)(=O)c1ccc(-n2nc(C(F)F)cc2C2CCCCC2)cc1
The melting point of the first is lower: 159 to 160 °C for the first, 199 to 203 °C for the second.

First: CCc1ncnc(O)c1F
Second: Cc1c(Cl)nnc(Cl)c1C(C)(C)CCl
The melting point of the first is higher: 112 to 114 °C for the first, 56 to 58 °C for the second.

`Cc1cc(Oc2ccc(S(C)(=O)=O)nc2)cc2cc(C3=NCC(CC(=O)N4CCS(=O)CC4)S3)[nH]c12` (centres undefined) and `CS(=O)(=O)c1ccc(C=CCN2CCc3nc(N)sc3CC2)cc1` cannot be ordered by melting point: 157 to 160 °C for the first, 157 to 161 °C for the second.

`CC(C)C(C)(C#N)N1C(=O)c2ccc3c(ccn3C)c2C1=O` (centres undefined) and `O=C1c2ccccc2C(=O)N1[C@H]1C=C[C@@H](O)CC1` (racemic) cannot be ordered by melting point: 123 to 128 °C for the first, 126 to 129 °C for the second.

First: COC(c1cc(-c2ccc(F)cc2)c(-c2ccc(F)cc2)n1C)(C(F)(F)F)C(F)(F)F
Second: COc1cccc(C2(Cn3ccnc3)CC(CSc3ccc(C)cc3)ON2C)c1 (centres undefined)
The melting point of the first is higher: 108 to 110 °C for the first, 107 to 108 °C for the second.

Compared with `CCOC(=O)c1sc(Oc2ccc(C(C)=O)c(O)c2)c2c1CCc1cnn(C)c1-2`, `COc1c(O)c([N+](=O)[O-])cc(C(=O)c2ccccc2)c1Cl` is higher in melting point: 131 to 132 °C for the first, 143 to 145 °C for the second.

First: CN1CCC(c2cc3c(N)cccc3c(=O)[nH]2)CC1
Second: CN1CCN(c2cc3ccccc3cn2)CC1
The melting point of the first is higher: 222 to 224 °C for the first, 93 to 94 °C for the second.

First: Nc1ccn(CC(O)CO)c(=O)n1 (centres undefined)
Second: CC(OCn1cc(Cl)cnc1=O)c1ccccc1 (centres undefined)
The melting point of the first is higher: 169 to 171 °C for the first, 139 °C for the second.

Compared with `CC(C)(C)c1cc(CN(C=O)n2ccnc2)cc(C(C)(C)C)c1O`, `N#Cc1ccc(C(=C2CCOC2=O)n2ccnc2)cc1` is higher in melting point: 167 °C for the first, 194 to 197 °C for the second.

Compared with `Cc1nn(C(=O)NC(C)C)c(=O)n1C`, `CCOC(=O)N1CCN(c2nc(C)nc3c2OCC(=O)N3CC(N)=O)CC1` is higher in melting point: 81 °C for the first, 225 to 227 °C for the second.

First: CC(=NNC=O)c1ccncc1Cl
Second: COc1ccc(C(=O)CCCC(=O)C(F)(F)F)cc1
The melting point of the first is higher: 175 °C for the first, 67.5 to 68.9 °C for the second.

First: C#CCCn1ncc2c(N)c(C(=O)OCC=C)c(C)nc21
Second: CCOC(=O)CN(CC(=O)OCC)Cc1ccc2cc(N)c3ccc(CN(CC(=O)OCC)CC(=O)OCC)nc3c2n1
The melting point of the first is lower: 115 to 116 °C for the first, 137 to 139 °C for the second.

Compared with `COc1ccc(N2CCN(c3cc(C)c4c(c3C)CC(C)(C)O4)CC2)cc1`, `COc1c(N2CC(C)[C@@](N)(CF)C2)c(F)cc2c(=O)c(C(=O)O)cn([C@@H]3C[C@@H]3F)c12` (some centres undefined) is lower in melting point: 174 to 175 °C for the first, 167 to 169 °C for the second.

With `Oc1ccccc1CNCCCCCCCCCCCCNCc1ccccc1O` the melting point was 72 to 73 °C.
